The source made the active and inactive calls. No cut-off for these calls is given here.
Experiments:
[1] = system: SK-MEL-5; experiment: Growth inhibition of human SK-MEL-5 cells after 72 hrs by CellTiter 96S AQeous non-radioactive cell proliferation assay; assay type: functional
[2] = system: MCF7; experiment: Growth inhibition of human MCF7 cells after 72 hrs by CellTiter 96S AQeous non-radioactive cell proliferation assay; assay type: functional
[3] = target: T1, Bromodomain-containing protein 4 (Homo sapiens, UniProt O60885); experiment: Binding affinity to BRD4 BD1 (unknown origin) at 25 degree C by ITC analysis
[4] = system: HL-60; experiment: Growth inhibition of human HL60 cells after 72 hrs by CellTiter 96S AQeous non-radioactive cell proliferation assay; assay type: functional
[5] = target: T2, Bromodomain-containing protein 9 (Homo sapiens, UniProt Q9H8M2); experiment: Binding affinity to human partial length BRD9 (R130 to V259 residues) by bromoKdELECT Discover assay
T2 sequence (Q9H8M2 whole entry): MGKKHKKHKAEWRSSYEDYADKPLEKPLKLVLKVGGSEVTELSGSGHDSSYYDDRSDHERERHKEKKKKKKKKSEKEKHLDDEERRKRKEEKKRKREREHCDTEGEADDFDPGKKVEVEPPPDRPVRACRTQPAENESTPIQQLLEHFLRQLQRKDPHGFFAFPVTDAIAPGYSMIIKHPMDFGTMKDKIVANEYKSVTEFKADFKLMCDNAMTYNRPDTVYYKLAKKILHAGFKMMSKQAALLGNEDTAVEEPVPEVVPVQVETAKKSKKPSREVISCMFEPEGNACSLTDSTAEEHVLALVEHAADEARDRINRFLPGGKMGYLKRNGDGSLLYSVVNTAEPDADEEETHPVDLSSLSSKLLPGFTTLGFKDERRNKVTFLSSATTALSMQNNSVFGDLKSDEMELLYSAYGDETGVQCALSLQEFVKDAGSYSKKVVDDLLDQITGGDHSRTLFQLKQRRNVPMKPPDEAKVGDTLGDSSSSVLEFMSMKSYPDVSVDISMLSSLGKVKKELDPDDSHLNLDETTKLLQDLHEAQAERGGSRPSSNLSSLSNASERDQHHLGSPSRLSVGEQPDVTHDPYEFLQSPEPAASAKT

[6] = target: T1, Bromodomain-containing protein 4; experiment: Binding affinity to human BRD4 BD1 (N44 to E168 aa residues) by bromoKdELECT Discover assay
[7] = target: T1, Bromodomain-containing protein 4; experiment: Binding affinity to human BRD4 BD1 (N44 to E168 aa residues) at 10 uM by bromoKdELECT Discover assay
[8] = Cytotoxicity against human A498 cells after 72 hrs by CellTiter 96S AQeous non-radioactive cell proliferation assay; assay type: functional; conditions: read-out: LC50 (the source's name)
[9] = system: SK-MEL-5; experiment: Cytotoxicity against human SK-MEL-5 cells after 72 hrs by CellTiter 96S AQeous non-radioactive cell proliferation assay; assay type: functional; conditions: read-out: LC50 (the source's name)
[10] = system: NCI-H522; experiment: Growth inhibition of human NCI-H522 cells after 72 hrs by CellTiter 96S AQeous non-radioactive cell proliferation assay; assay type: functional
[11] = system: LOX IMVI; experiment: Cytotoxicity against human LOX-IMVI cells after 72 hrs by CellTiter 96S AQeous non-radioactive cell proliferation assay; assay type: functional; conditions: read-out: LC50 (the source's name)
[12] = system: SNB-75; experiment: Growth inhibition of human SNB-75 cells after 72 hrs by CellTiter 96S AQeous non-radioactive cell proliferation assay; assay type: functional
[13] = system: UACC-62; experiment: Growth inhibition of human UACC-62 cells after 72 hrs by CellTiter 96S AQeous non-radioactive cell proliferation assay; assay type: functional
[14] = species: Homo sapiens; experiment: Selectivity index, ratio of Kd for BRPF1B (unknown origin) to BRD4 BD1 (unknown origin) by bromoKdELECT Discover assay
[15] = species: Homo sapiens; experiment: Selectivity index, ratio of Kd for BRD7 (unknown origin) to BRD4 BD1 (unknown origin) by bromoKdELECT Discover assay
[16] = species: Homo sapiens; experiment: Selectivity index, ratio of Kd for BRD9 (unknown origin) to BRD4 BD1 (unknown origin) by bromoKdELECT Discover assay
[17] = target: T1, Bromodomain-containing protein 4; experiment: Binding affinity to BRD4 BD1 (unknown origin) at 15 degree C by ITC analysis
[18] = target: T1, Bromodomain-containing protein 4; experiment: Binding affinity to BRD4 BD1 (unknown origin) at 37 degree C by ITC analysis

SMILES | GI50 ([1]; Homo sapiens, SK-MEL-5) [µM] | GI50 ([2]; Homo sapiens, MCF7) [µM] | Kd [3] [nM] | GI50 ([4]; Homo sapiens, HL-60) [nM] | also measured
COc1ccc(S(=O)(=O)N2CC3(COC3)C2)cc1NC(=O)c1[nH]c(C)c2c1CCCCC2=O | 20.8 | 5.76 | 260 | 821 | –
CCc1c(C(=O)NCc2c(O)ccc3cccc(O)c23)[nH]c(C)c1C(C)=O | 4.2 | 4.2 | – | 1300 | Kd ([5]; read-out: Kd): 2900 nM; Kd [6]: > 4 µM
COc1ccc(S(=O)(=O)N2CCN(C)CC2)cc1NC(=O)c1[nH]c(C)c2c1CCCCC2=O | > 20 | > 25 | 420 | 2080 | –
COc1ccc(S(=O)(=O)N2CCCCC2)cc1NC(=O)c1c2c(c(C)n1C)C(=O)CCCC2 | > 10 | > 10 | – | > 10000 | Activity [7]: inactive
COc1ccc(S(=O)(=O)N2CCCCC2)cc1NC(=O)c1[nH]c(C)c2c1CCCCC2=O | 6.79 | 4.06 | 50 | 491 | CC50 [8]: 19.7 µM; CC50 [9]: 12.2 µM; GI50 [10]: 372 nM; CC50 [11]: 8.17 µM; GI50 [12]: 141 nM; GI50 [13]: 355 nM
Cc1cc(=O)n(C)c2cc(N3C(=O)CC[C@H](NS(=O)(=O)CC(C)C)[C@H]3c3ccc(Cl)cc3)ccc12 | – | – | – | 5030 | –
Cc1sc2c(c1C)C(c1ccc(Cl)cc1)=N[C@@H](CC(=O)OC(C)(C)C)c1nnc(C)n1-2 | – | – | – | – | GI50 [1]: > 40 µM; GI50 [2]: > 50 µM; GI50 [4]: 21 nM
CCN(CC)S(=O)(=O)c1ccc(OC)c(NC(=O)c2[nH]c(C)c3c2CCCCC3=O)c1 | 16.3 | 6.84 | 140 | 1360 | –
COc1ccc(S(=O)(=O)N2CCOCC2)cc1NC(=O)c1[nH]c(C)c2c1CCCCC2=O | 6.8 | 7.67 | 80 | 170 | Ratio [14]: 8.7; Ratio [15]: 1.4; Ratio [16]: 1.1
CCc1c(C(=O)Nc2cc(S(=O)(=O)N(CC)CC)ccc2O)[nH]c(C)c1C(C)=O | – | – | – | 17000 | –
COc1ccc(S(=O)(=O)N2CCCCCC2)cc1NC(=O)c1[nH]c(C)c2c1CCCCC2=O | 6.85 | 3 | 180 | 565 | –
CCN(CC)S(=O)(=O)c1ccc(O)c(NC(=O)c2[nH]c(C)c3c2CCCCC3=O)c1 | > 80 | > 40 | 70 | > 40000 | Kd [17]: < 10 nM; Kd [18]: 170 nM
CC(=O)c1cc(-c2cc(C(=O)NC3CC3)ccc2C)c2ncccn12 | 2.77 | 4.49 | – | 1330 | Kd [5]: Not Active
CCC(=O)N1CCOc2c(cc(-c3ccc(OC)c(OC)c3)cc2OC[C@H]2CCCN(C)C2)C1 | > 50 | > 50 | – | > 50000 | Kd [5]: Not Active

— ChEMBL document CHEMBL4715871, “4-Acyl Pyrroles as Dual BET-BRD7/9 Bromodomain Inhibitors Address BETi Insensitive Human Cancer Cell Lines” (J Med Chem, 2020)
